In article PMC5786306, “An AKAP-Lbc-RhoA interaction inhibitor promotes the translocation of aquaporin-2 to the plasma membrane of renal collecting duct principal cells” (PLoS ONE, 2018):
Values joined by “and” are separate entries in the source; they are usually repeats but may differ in a detail not shown here. Equal entries are not always repeated. “Also recorded” adds a separate entry of the source. Where two headings read alike, the source gives them in different places.

How the values were obtained:
[1] = Nephelometric solubility; assay type: physicochemical; settings: DMEM + 10 % FCS, plasma or biological fluid, kinetic from dmso stock, maximal solubility in DMEM + 10 % FCS
Description: Solubility of Scaff10 derivatives was assessed nephelometrically. Scaff10 derivatives are moderately to poorly soluble in aqueous solutions due to their large number of aromatic rings having lipophilic character. Details about NMR, LC/MS and HPLC characterization steps are given in the Supplemental Information.
Suppl. Tab. 3: Overview of all 55 Scaff10 derivatives.Structures labeld with 1 were commercially obtained. MW = molecular weight. logP = calculated partition coefficient (using […]
Solubility was assessed nephelometrically in DMEM + 10 % FCS + Scaff10 derivative with either 0.3 or 2 % DMSO
final concentration; values in µM indicate maximal solubility of the compound under the respective condition. Yield in % indicates total yield of the last step of chemical synthesis
for each of Scaff10 derivatives. n.d. = not determined. n.i. = not indicated.
Scaff10 MW Number of exp. 2 % DMSO 0.3 % DMSO Scaff10 Yield
Structure log P Disruption of the PPI IC50 [µM]
derivative [g/mol] in dupl. [µM] [µM] class [%]

[2] = target: T1, interaction of AKAP-Lbc/DHPH and RhoA (Homo sapiens, UniProt P61586); assay: Homogeneous time-resolved fluorescence (HTRF) assay; assay type: binding
T1 construct: His6-AKAP-Lbc/DHPH (aa 1972–2342 of human AKAP-Lbc; NP_006729.4); made in house
Excerpt: Fig 2 The small molecule Scaff10-8 inhibits the interaction of the DH domain of AKAP-Lbc and RhoA. (A). Principle of homogenous time-resolved fluorescence (HTRF) assay. Recombinant His-AKAP-Lbc/DHPH and GST-RhoA were generated. The tags are recognized by specific antibodies coupled to fluorescent dyes. When the two proteins interact, donor and acceptor dyes of the antibodies are in close proximity, energy transfer occurs upon excitation at 320 nm and a FRET signal is detected (665 nm). If a compound disrupts the interaction of the DHPH domain and RhoA, the proximity of the fluorescent moieties remains insufficient for a FRET signal to occur. […] As expected, excess untagged Rho decreases the binding between GST-RhoA and His-AKAP-Lbc/DHPH in a dose-dependent manner (lower left panel). […] (C) The influence of Scaff10-8 on the interaction of RhoA with the recombinant DH domain of AKAP-Lbc in the absence of the PH domain was determined by Alpha screen. […] The IC50 value is indicated.
The assay was essentially carried out as described. Scaff10 derivatives were added to His6-AKAP-Lbc/DHPH protein (250 nM final concentration) in HTRF buffer (PBS; 4 mM MgCl2; 0.05% Tween 20) in 384 well plates (Proxiplate-384 Plus, white, #6008289; Perkin Elmer LAS, Rodgau, Germany). Concentrations of Scaff10 derivatives ranged between 1.56–200 μM (2% DMSO final concentration); HTRF buffer with 2% DMSO served as a control. GST-RhoA (30 nM final concentration) in HTRF buffer and anti-GST antibody coupled to terbium (donor) and anti-His6-tag antibody coupled to XL665 (acceptor) were added to all wells (final antibody concentration: 2 μg/ml). After 1 h incubation at room temperature in the dark, FRET signals were recorded at 620 and 665 nm using a Genios Pro plate reader (Tecan Austria GmbH, Grödig, AT) and the ratios of […] to 620 nm were calculated. Wells containing no compound were set to 100% interaction of AKAP-Lbc/DHPH with RhoA, wells containing GST-RhoA only (without His6-AKAP-Lbc/DHPH) were set to 0% interaction. To exclude any interference of the tags and/or antibodies with Scaff10 derivatives, a His6-GST fusion protein replaced the two tagged proteins in a control assay. Wells containing His6-GST fusion protein were set to 100% interaction of His6-GST, wells containing no fusion protein were set to 0% interaction.

[3] = target: T2, 647-RhoA (Homo sapiens, UniProt P61586); assay: Microscale thermophoresis (MST) with 647-RhoA; assay type: binding
T2 construct: made in house
Description: The final concentration of GFP-AKAP-Lbc/DHPH was set to 150 nM, 95% LED and 80% MST laser power. […] The samples were incubated in the dark for 1 h incubation at room temperature, and measured with 30 sec laser-on and 5 sec laser-off time at a Monolith NT.115 device (NanoTemper). Measured fluorescence (F) was normalised (Fhot/Fcold = Fsteady state/Finitial state, Fig 3). Values of thermophoresis + T-jump were related to average of each measurement row (16 capillaries). Final values are given as ‰.
Fig 4 The Scaff10 derivative Scaff10-8 binds to RhoA but not to the DHPH domain of AKAP-Lbc. (A-D) Microscale thermophoresis (MST) takes advantage of the phenomenon of directed movement of particles in a temperature gradient. Binding events lead to changes in the hydration shell of biomolecules and a relative change of movement of the molecular complex along a temperature gradient. Using such changes, binding affinities can be determined. MST assays were carried out with (A) the recombinant DHPH domain of AKAP-Lbc fused with GFP and RhoA as a ligand and (B) fluorescent 647-RhoA and the His-tagged AKAP-Lbc/DHPH domain as a ligand. (C) MST assays for the analysis of the binding of Scaff10-8 to 647-RhoA. Upper panels: The concentration of fluorescent 647-RhoA remained constant and Scaff10-8 (left) and Scaff10-7 as a negative control (right) were titrated in increasing concentrations. Lower panels: Values of fluorescence corresponding to upper panels. (D) MST assay showing no binding of Scaff10-8 or Scaff10-7 to GFP-DHPH. Upper panels: The concentration of fluorescent GFP-AKAP-Lbc/DHPH remained constant and Scaff10-8 (left) and Scaff10-7 (right) were titrated in increasing concentrations. Lower panels: Values of fluorescence corresponding to upper panels. […] F norm = normalized fluorescence (fluorescence steady state/fluorescence initial state) indicated in ‰. n = 3–5. Mean ± SEM. […] The ligand protein named in each panel heading is used as the substance label, and it is uncertain whether these count as substances.

[4] = 0.3 % DMSO final, read-out: Solubility 0.3 % DMSO
[5] = 2 % DMSO final, read-out: Solubility 2 % DMSO

T1 sequence (P61586 whole entry, the tested form may be a part): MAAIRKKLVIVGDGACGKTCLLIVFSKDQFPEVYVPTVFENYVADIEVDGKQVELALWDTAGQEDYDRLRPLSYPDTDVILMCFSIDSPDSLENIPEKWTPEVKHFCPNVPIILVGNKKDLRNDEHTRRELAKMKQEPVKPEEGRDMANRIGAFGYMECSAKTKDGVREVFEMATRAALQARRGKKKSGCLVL
T2 sequence (P61586 whole entry): as the sequence (P61586 whole entry, the tested form may be a part) above

binding to 647-RhoA ([3]; result in words)	IC50 ([2]; Table 1; HTRF; '-' = no IC50, inactive (n.d. is used separately in S3 Table); read-out: IC50 ± SEM) [µM]	SMILES	solubility [1, 4] [µM]	solubility [1, 5] [µM]	inhibitory effect on the AKAP-Lbc/DHPH-RhoA interaction ([2]; HTRF; result in words)	IC50 ([2]; read-out: IC50 ± SEM; Table 1; HTRF; '-' = no IC50, inactive (n.d. is used separately in S3 Table)) [µM]	Kd ([3]; KD for binding to 647-RhoA, mean ± SEM, n = 3–5)	IC50 ([2]; IC50 ± SEM, Table 1; HTRF; '-' = no IC50, inactive (n.d. is used separately in S3 Table)) [µM]
		COc1ccc(-c2coc3cc4oc(=O)c(C)c(C)c4cc23)cc1 [Scaff10, 3-(4-Methoxyphenyl)-5,6-dimethyl-furo[3,2-g]chromen-7-one]	75	85	no inhibitory effect	> 200		
did not bind	> 200	CCOC(=O)CCc1c(C)c2ccc(OCC(=O)c3ccc(OC)cc3)cc2oc1=O [Scaff10-7, Ethyl 3-[7-[2-(4-methoxyphenyl)-2-oxo-ethoxy]-4-methyl-2-oxo-chromen-3-yl]propanoate]	40	70	did not interfere; also recorded: without inhibitory effects			
		COc1ccc(-c2coc3cc4oc(=O)c(CCC(=O)O)c(C)c4cc23)cc1 [Scaff10-8, 3-[3-(4-Methoxyphenyl)-5-methyl-7-oxo-furo[3,2-g]chromen-6-yl] propanoic acid]	30	50			20 µM and 20.2 µM	34.1 ± 1.7
